Laboratory results: patent US11000491B2, “Amino-aryl-benzamide compounds and methods of use thereof” (HEPANOVA, INC., priority 2017, dated 2021)
pEC50: −log10 of the molar value. Read-outs that look alike come from different tables or passages of the source.

What was measured:
Assay type in all cases: cell-based
SREBP-2 = SREBP-2 expression in cultured primary human hepatocytes; details: procedure of Example 6, read-out: SREBP-2 mRNA inhibition (EC50)
Description: (§1) FIG. 9. Effects of HPN-01 on the expression of SREBP-1 (master regulator of hepatic glucose metabolism and fatty acid synthesis) and SREBP-2 (master regulator of cholesterol homeostasis in cells) in cultured primary human hepatocytes.
(§2) Cultured primary human hepatocytes were treated with various concentrations of HPN-01, and the expression levels of SREBP-1 (master regulator of hepatic glucose metabolism and fatty acid synthesis) and SREBP-2 (master regulator of cholesterol homeostasis in cells) were subsequently determined.
(§3) The ability of each HPN-01 derivative obtained from the synthesis methods described above, to inhibit SREBP-1 and SREBP-2 mRNA expression in primary hepatocytes, was tested using the procedure outlined in Example 6. The results of this analysis are shown in Table 6 (third and fourth columns).

Huh7 cells = experiment: LD content in Huh7 cells pre-treated with insulin, Oil-Red-O staining, absorbance OD 540 nm; details: procedure of Example 3, read-out: LD content inhibition (EC50)
Description: FIG. 6. […] Spectrophotometric absorbance of untreated or HPN-01-treated Huh7 cells pre-incubated with 1 mM insulin is shown. LD contents were stained using Oil Red O, and measured by determining spectrophotometer absorbance under OD 540 nm.
Huh7 cells were mock treated or pre-treated with 1 mM insulin, and subsequently treated with indicated amounted of HPN-01.
The ability of each HPN-01 derivative obtained from the synthesis methods described above, to inhibit LD formation in hepatocytes, was tested using the procedure outlined in Example 3. The results of this analysis are shown below in Table 6 (second column).

SREBP-1 = SREBP-1 expression in cultured primary human hepatocytes; details: procedure of Example 6, read-out: SREBP-1 mRNA inhibition (EC50)
Description: as §1, §2, §3

[1] = Homo sapiens, Huh-7, Huh7 cells

Row | SMILES | pEC50 (SREBP-2) | pEC50 (Huh7 cells; Huh7 cells) | pEC50 (SREBP-1) | pEC50 (SREBP-2; Homo sapiens, Hepatocyte) | pEC50 (Huh7 cells; [1]) | pEC50 (SREBP-1; Homo sapiens, Hepatocyte) | pEC50 (SREBP-2; Hepatocyte) | pEC50 (SREBP-1; Hepatocyte)
1 | Cc1cccc(NC(=O)/C=C/c2cc(C(N)=O)c(N)c(-c3ccc(S(N)(=O)=O)cc3)c2)c1 [HPN-01127, (E)-2-amino-5-(3-oxo-3-(m-tolylamino)prop-1-en-1-yl)-4═-sulfamoyl-[1,1′-biphenyl]-3-carboxamide] | 5.47 | 6.48 | 5.93 |  |  |  |  | 
2 | CCOc1ccc(NC(=O)/C=C/c2cc(C(N)=O)c(N)c(-c3ccc(S(N)(=O)=O)cc3)c2)cc1 [HPN-01129, (E)-2-amino-5-(3-((4-ethoxyphenyl)amino)-3-oxoprop-1-en-1-yl)-4′-sulfamoyl-[1,1′-biphenyl]-3-carboxamide] |  |  |  | 5.51 | 6.54 | 5.77 |  | 
3 | NC(=O)c1cc(/C=C/C(=O)Nc2ccc(Cl)cc2)cc(-c2ccc(S(N)(=O)=O)cc2)c1N [HPN-01130, (E)-2-amino-5-(3-((4-chlorophenyl)amino)-3-oxoprop-1-en-1-yl)-4′-sulfamoyl-[1,1′-biphenyl]-3-carboxamide] |  |  |  | 5.74 | 7.22 | 6.01 |  | 
4 | NC(=O)c1cc(/C=C/C(=O)NCc2ccccc2)cc(-c2ccc(S(N)(=O)=O)cc2)c1N [HPN-01131, (E)-2-amino-5-(3-(benzylamino)-3-oxoprop-1-en-1-yl)-4′-sulfamoyl-[1,1′-biphenyl]-3-carboxamide] |  |  |  | 5.65 | 6.42 | 5.89 |  | 
5 | NC(=O)c1cc(C#CCO)cc(-c2ccc(S(N)(=O)=O)cc2)c1N [HPN-01201, 2-amino-5-(3-hydroxyprop-1-ynyl)-4′-sulfamoylbiphenyl-3-carboxamide] |  |  |  | 5.16 | 5.92 | 5.50 |  | 
6 | NC(=O)c1cc(C#Cc2ccccc2)cc(-c2ccc(S(N)(=O)=O)cc2)c1N [HPN-01202, 2-amino-5-(phenylethynyl)-4′-sulfamoylbiphenyl-3-carboxamide] |  |  |  | 6.05 | 6.54 | 6.19 |  | 
7 | COc1ccc(C#Cc2cc(C(N)=O)c(N)c(-c3ccc(S(N)(=O)=O)cc3)c2)cc1 [HPN-01204, 2-amino-5-((4-methoxyphenyl)ethynyl)-4′-sulfamoylbiphenyl-3-carboxamide] |  |  |  | 5.34 | 6.00 | 5.38 |  | 
8 | NC(=O)c1cc(C#Cc2ccc(Cl)cc2)cc(-c2ccc(S(N)(=O)=O)cc2)c1N [HPN-01205, 2-amino-5-((4-chlorophenyl)ethynyl)-4′-sulfamoyl-[1,1′-biphenyl]-3-carboxamide] |  |  |  | 5.68 | 6.28 | 5.76 |  | 
9 | NC(=O)c1cc(C#Cc2ccc(Br)cc2)cc(-c2ccc(S(N)(=O)=O)cc2)c1N [HPN-01207, 2-amino-5-((4-bromophenyl)ethynyl)-4′-sulfamoyl-[1,1′-biphenyl]-3-carboxamide] |  |  |  | 5.56 | 6.01 | 5.71 |  | 
10 | NC(=O)c1cc(C#Cc2cccc(Br)c2)cc(-c2ccc(S(N)(=O)=O)cc2)c1N [HPN-01208, 2-amino-5-((3-bromophenyl)ethynyl)-4′-sulfamoyl-[1,1′-biphenyl]-3-carboxamide] |  |  |  | 5.24 | 5.77 | 5.49 |  | 
11 | C[Si](C)(C)C#Cc1cc(C(N)=O)c(N)c(-c2ccc(S(N)(=O)=O)cc2)c1 [HPN-01209, 2-amino-4′-sulfamoyl-5-((trimethylsilyl)ethynyl)-[1,1′-biphenyl]-3-carboxamide] |  |  |  |  | 6.09 |  | 5.70 | 5.63
12 | NC(=O)c1cc(C#CCOC(=O)c2ccccc2Cl)cc(-c2ccc(S(N)(=O)=O)cc2)c1N [HPN-01210, 3-(6-amino-5-carbamoyl-4′-sulfamoyl-[1,1′-biphenyl]-3-yl)prop-2-yn-1-yl 2-chlorobenzoate] |  |  |  | 5.53 | 6.28 | 5.72 |  | 
13 | NC(=O)c1cc(C#CCOC(=O)c2ccccc2Br)cc(-c2ccc(S(N)(=O)=O)cc2)c1N [HPN-01211, 3-(6-amino-5-carbamoyl-4′-sulfamoyl-[1,1′-biphenyl]-3-yl)prop-2-yn-1-yl 2-bromobenzoate] |  |  |  | 5.15 | 6.11 | 5.42 |  | 
14 | Cc1ccccc1C(=O)OCC#Cc1cc(C(N)=O)c(N)c(-c2ccc(S(N)(=O)=O)cc2)c1 [HPN-01212, 3-(6-amino-5-carbamoyl-4′-sulfamoyl-[1,1′-biphenyl]-3-yl)prop-2-yn-1-yl 2-methylbenzoate] |  |  |  | 5.73 | 6.12 | 5.64 |  | 
15 | NC(=O)c1cc(C#CCOC(=O)c2ccccc2F)cc(-c2ccc(S(N)(=O)=O)cc2)c1N [HPN-01213, 3-(6-amino-5-carbamoyl-4′-sulfamoyl-[1,1′-biphenyl]-3-yl)prop-2-yn-1-yl 2-fluorobenzoate] |  |  |  | 5.31 | 5.89 | 5.34 |  | 
16 | Cc1ccc(C(=O)OCC#Cc2cc(C(N)=O)c(N)c(-c3ccc(S(N)(=O)=O)cc3)c2)cc1 [HPN-01214, 3-(6-amino-5-carbamoyl-4′-sulfamoyl-[1,1′-biphenyl]-3-yl)prop-2-yn-1-yl 4-methylbenzoate] |  |  |  | 5.20 | 6.28 | 5.47 |  | 
17 | Cc1cccc(C(=O)OCC#Cc2cc(C(N)=O)c(N)c(-c3ccc(S(N)(=O)=O)cc3)c2)c1 [HPN-01215, 3-(6-amino-5-carbamoyl-4′-sulfamoyl-[1,1′-biphenyl]-3-yl)prop-2-yn-1-yl 3-methylbenzoate] |  |  |  | 5.17 | 6.21 | 5.43 |  | 
18 | COc1cccc(C(=O)OCC#Cc2cc(C(N)=O)c(N)c(-c3ccc(S(N)(=O)=O)cc3)c2)c1 [HPN-01216, 3-(6-amino-5-carbamoyl-4′-sulfamoyl-[1,1′-biphenyl]-3-yl)prop-2-yn-1-yl 3-methoxybenzoate] |  |  |  | 5.10 | 6.02 | 5.36 |  | 
19 | COc1ccccc1C(=O)OCC#Cc1cc(C(N)=O)c(N)c(-c2ccc(S(N)(=O)=O)cc2)c1 [HPN-01217, 3-(6-amino-5-carbamoyl-4′-sulfamoyl-[1,1′-biphenyl]-3-yl)prop-2-yn-1-yl 2-methoxybenzoate] |  |  |  | 5.68 | 6.74 | 5.99 |  | 
20 | COc1ccc(C(=O)OCC#Cc2cc(C(N)=O)c(N)c(-c3ccc(S(N)(=O)=O)cc3)c2)cc1 [HPN-01218, 3-(6-amino-5-carbamoyl-4′-sulfamoyl-[1,1′-biphenyl]-3-yl)prop-2-yn-1-yl 4-methoxybenzoate] |  |  |  | 5.19 | 6.00 | 5.34 |  | 
21 | NC(=O)c1cc(C#CCOC(=O)c2cccc(O)c2)cc(-c2ccc(S(N)(=O)=O)cc2)c1N [HPN-01219, 3-(6-amino-5-carbamoyl-4′-sulfamoyl-[1,1′-biphenyl]-3-yl)prop-2-yn-1-yl 3-hydroxybenzoate] |  |  |  | 5.16 | 6.02 | 5.33 |  | 
22 | NC(=O)c1cc(C#CCOC(=O)c2ccc(O)cc2)cc(-c2ccc(S(N)(=O)=O)cc2)c1N [HPN-01220, 3-(6-amino-5-carbamoyl-4′-sulfamoyl-[1,1′-biphenyl]-3-yl)prop-2-yn-1-yl 4-hydroxybenzoate] |  |  |  | 5.49 | 6.34 | 5.80 |  | 
23 | NC(=O)c1cc(C#CCOC(=O)c2ccccn2)cc(-c2ccc(S(N)(=O)=O)cc2)c1N [HPN-01221, 3-(6-amino-5-carbamoyl-4′-sulfamoyl-[1,1′-biphenyl]-3-yl)prop-2-yn-1-yl picolinate] |  |  |  | 5.46 | 6.11 | 5.78 |  | 
24 | NC(=O)c1cc(C#CCOC(=O)c2ccc[nH]2)cc(-c2ccc(S(N)(=O)=O)cc2)c1N [HPN-01222, 3-(6-amino-5-carbamoyl-4′-sulfamoyl-[1,1′-biphenyl]-3-yl)prop-2-yn-1-yl 1H-pyrrole-2-carboxylate] |  |  |  | 4.89 | 5.87 | 5.14 |  | 
25 | CC(=O)OCC#Cc1cc(C(N)=O)c(N)c(-c2ccc(S(N)(=O)=O)cc2)c1 [HPN-01223, 3-(6-amino-5-carbamoyl-4′-sulfamoyl-[1,1′-biphenyl]-3-yl)prop-2-yn-1-yl acetate] |  |  |  | 5.38 | 5.99 | 5.58 |  | 
26 | CCCC(=O)OCC#Cc1cc(C(N)=O)c(N)c(-c2ccc(S(N)(=O)=O)cc2)c1 [HPN-01224, 3-(6-amino-5-carbamoyl-4′-sulfamoyl-[1,1′-biphenyl]-3-yl)prop-2-yn-1-yl butyrate] |  |  |  | 5.59 | 6.24 | 5.80 |  | 
27 | COC(=O)c1ccc(-c2cc(C(N)=O)c(N)c(-c3ccc(S(N)(=O)=O)cc3)c2)cc1 [HPN-01301, methyl 4′-amino-5′-carbamoyl-4″-sulfamoyl-[1,1′:3′,1″-terphenyl]-4-carboxylate] |  |  |  | 5.27 | 5.92 | 5.46 |  | 
28 | CCOC(=O)c1ccc(-c2cc(C(N)=O)c(N)c(-c3ccc(S(N)(=O)=O)cc3)c2)cc1 [HPN-01302, ethyl 4′-amino-5′-carbamoyl-4″-sulfamoyl-[1,1′:3′,1″-terphenyl]-4-carboxylate] |  |  |  | 5.34 | 5.99 | 5.50 |  | 
